Measurements as given in patent US8932626B2, “Felbinac-containing transdermally absorbable preparation” (Teikoku Seiyaku Co., Ltd., priority 2009, dated 2015).

What was measured:
[1] = In vitro rat skin permeability test (Test Example 1)
Procedure: The rat abdominal skin was exfoliated, the dermis side of the skin was directed to a side of a receptor layer, and its inside was filled with phosphate buffered saline. Water kept at 37° C. was circulated in a water jacket.

[2] = background art statement; cited from earlier work

| Compound | releasing of ketoprofen (permeated amount through excised rat skin) ([1]; Comparative Study (2), FIG. 3, patch with ketoprofen and lidocaine (Comparative Example 4) versus only ketoprofen (Comparative Example 3)) | releasing effect of the anti-inflammatory analgesic obtained by formulating lidocaine ([1]; summary of Comparative Studies (1) to (3)) | solubility in various solvents [2] |
| --- | --- | --- | --- |
| CC(C(=O)O)c1cccc(C(=O)c2ccccc2)c1 (stereo not drawn) [ketoprofen] | inhibited significantly | not observed |  |
| O=C(O)Cc1ccc(-c2ccccc2)cc1 [Felbinac] |  |  | very low |
